Laboratory results from ChEMBL document CHEMBL4725408, “Antibacterial Spiropyrimidinetriones with N-Linked Azole Substituents on a Benzisoxazole Scaffold Targeting DNA Gyrase” (J Med Chem, 2020).
Values after ≈ are worked out from the molar mass of the structure shown.

Legend:
Streptococcus pneumoniae = experiment: Antibacterial activity against Streptococcus pneumoniae ARC548 by broth microdilution method; format: functional
[1] = n-octanol/phosphate buffer partition coefficient, log D of the compound at pH 7.4 measured after 1 hr by UV-LC/MS based shake flask method; format: physicochemical
Streptococcus pyogenes = experiment: Antibacterial activity against Streptococcus pyogenes ARC838 by broth microdilution method; format: functional
[2] = Plasma clearance in Wistar Han rat at 3 mg/kg, iv administered as 15 mins infusion by LC-MS/MS analysis; format: ADME, organism-based; set-up: unit not given here; settings: in vivo, 0.25 h
Staphylococcus aureus [3] = experiment: Antibacterial activity against methicillin/quinolone-resistant Staphylococcus aureus ARC517 by broth microdilution method; format: functional
Staphylococcus aureus [4] = experiment: Antibacterial activity against methicillin sensitive Staphylococcus aureus ARC516 in presence of human serum by broth microdilution method; format: functional
[5] = Solubility of the compound by high throughput solubility assay; format: physicochemical
Staphylococcus aureus [6] = experiment: Antibacterial activity against methicillin sensitive Staphylococcus aureus ARC516 by broth microdilution method; format: functional
Escherichia coli = experiment: Antibacterial activity against Escherichia coli ARC523 by broth microdilution method; format: functional
Haemophilus influenzae = experiment: Antibacterial activity against Haemophilus influenzae ARC737 by broth microdilution method; format: functional
[7] = Inhibition of recombinant Escherichia coli DNA gyrase AB expressed in Escherichia coli BL21 (DE3) using relaxed pJT519 DNA as substrate preincubated for 20 mins followed by 5'-BODIPY-TMR-TTCTTCTTCT addition and measured after 1 hr by fluorescence anisotropy
[8] = Unbound plasma clearance in Wistar Han rat at 3 mg/kg, iv administered as 15 mins infusion by LC-MS/MS analysis; format: ADME, organism-based; set-up: unit not given here; settings: in vivo, 0.25 h
L5178Y = experiment: Genotoxicity in mouse L5178Y cells using DAPI staining by microscopy based micronucleation assay; format: toxicity, cell-based
[9] = Protein binding in human plasma assessed as unbound fraction at 10 uM measured after 16 hrs by LC-MS/MS based equilibrium dialysis method; format: ADME, cell-free
[10] = Ratio of MIC for antibacterial activity against methicillin/quinolone-resistant Staphylococcus aureus ARC517 to protein binding in human plasma assessed as unbound fraction

Compound	MIC (Streptococcus pneumoniae) [µM]	logD at 1 h [1]	MIC (Streptococcus pyogenes) [µM]	CL [2]	MIC (Staphylococcus aureus [3]) [µM]	MIC (Staphylococcus aureus [4]) [µM]	solubility [5] [µM]	MIC (Staphylococcus aureus [6]) [µM]	MIC (Escherichia coli) [µM]	MIC (Haemophilus influenzae) [µM]	IC50 [7] [nM]	CL free [8]	NOAEL (L5178Y) [µM]	fraction unbound at 16 h, 10 µM [9]	Ratio [10]
C[C@@H]1CN2c3c(cc4c(-n5cnc(C#N)n5)noc4c3F)CC3(C(=O)NC(=O)NC3=O)[C@H]2[C@H](C)O1	1.6 (≈ 0.769 µg/mL)	2	0.8 (≈ 0.384 µg/mL)	200	0.39 (≈ 0.187 µg/mL)	3.1	5 (≈ 2.4 µg/mL)	0.2 (≈ 0.0961 µg/mL)	100 (≈ 48 µg/mL)	3.1 (≈ 1.49 µg/mL)	1300	2600	< 6	–	–
C[C@@H]1CN2c3c(cc4c(-n5ncnc5CO)noc4c3F)CC3(C(=O)NC(=O)NC3=O)[C@H]2[C@H](C)O1	0.39 (≈ 0.189 µg/mL)	1.4	0.78 (≈ 0.379 µg/mL)	37	1.6 (≈ 0.777 µg/mL)	0.49	> 1000	0.31 (≈ 0.15 µg/mL)	50 (≈ 24.3 µg/mL)	0.78 (≈ 0.379 µg/mL)	190	220	12	0.17	–
CNS(=O)(=O)c1cnn(-c2noc3c(F)c4c(cc23)CC2(C(=O)NC(=O)NC2=O)[C@H]2[C@H](C)O[C@H](C)CN42)c1	–	2.2	–	–	1.56 (≈ 0.854 µg/mL)	1.6	21 (≈ 11.5 µg/mL)	0.39 (≈ 0.214 µg/mL)	50 (≈ 27.4 µg/mL)	–	610	–	–	0.068	23
C[C@@H]1CN2c3c(cc4c(-n5cncn5)noc4c3Cl)CC3(C(=O)NC(=O)NC3=O)[C@H]2[C@H](C)O1	0.39 (≈ 0.184 µg/mL)	2	0.39 (≈ 0.184 µg/mL)	11.6	0.39 (≈ 0.184 µg/mL)	0.39	420 (≈ 198 µg/mL)	< 0.2	12 (≈ 5.66 µg/mL)	0.78 (≈ 0.368 µg/mL)	120	156	< 6	0.074	–
CNc1ncnn1-c1noc2c(F)c3c(cc12)CC1(C(=O)NC(=O)NC1=O)[C@H]1[C@H](C)O[C@H](C)CN31	0.19 (≈ 0.092 µg/mL)	2.1	0.19 (≈ 0.092 µg/mL)	32	0.2 (≈ 0.0969 µg/mL)	< 0.2	280 (≈ 136 µg/mL)	0.049 (≈ 0.0237 µg/mL)	16 (≈ 7.75 µg/mL)	0.39 (≈ 0.189 µg/mL)	71	190	3	0.08	–
C[C@@H]1CN2c3c(cc4c(-n5nccn5)noc4c3F)CC3(C(=O)NC(=O)NC3=O)[C@H]2[C@H](C)O1	–	1.95	–	–	0.78 (≈ 0.355 µg/mL)	1.56	810 (≈ 369 µg/mL)	< 0.2	12.5 (≈ 5.69 µg/mL)	–	240	–	–	0.031	25
C[C@@H]1CN2c3c(cc4c(-n5cccn5)noc4c3F)CC3(C(=O)NC(=O)NC3=O)[C@H]2[C@H](C)O1 (racemic)	–	3	–	–	0.78 (≈ 0.354 µg/mL)	3.1	29 (≈ 13.2 µg/mL)	0.39 (≈ 0.177 µg/mL)	25 (≈ 11.4 µg/mL)	–	–	–	–	< 0.01	>80
COCc1ncnn1-c1noc2c(F)c3c(cc12)CC1(C(=O)NC(=O)NC1=O)[C@H]1[C@H](C)O[C@H](C)CN31	0.78 (≈ 0.39 µg/mL)	1.7	0.78 (≈ 0.39 µg/mL)	17	0.39 (≈ 0.195 µg/mL)	0.39	890 (≈ 445 µg/mL)	< 0.2	70 (≈ 35 µg/mL)	0.78 (≈ 0.39 µg/mL)	1100	120	12	0.14	–
CCNc1ncnn1-c1noc2c(F)c3c(cc12)CC1(C(=O)NC(=O)NC1=O)[C@H]1[C@H](C)O[C@H](C)CN31	< 0.2	2.2	< 0.2	11	0.098 (≈ 0.0489 µg/mL)	< 0.2	3 (≈ 1.5 µg/mL)	0.049 (≈ 0.0244 µg/mL)	12 (≈ 5.98 µg/mL)	0.39 (≈ 0.194 µg/mL)	97	130	–	0.037	–
C[C@@H]1CN2c3c(cc4c(-n5ccnn5)noc4c3F)CC3(C(=O)NC(=O)NC3=O)[C@H]2[C@H](C)O1	–	2	–	–	0.39 (≈ 0.178 µg/mL)	0.78	130 (≈ 59.2 µg/mL)	0.068 (≈ 0.031 µg/mL)	6.25 (≈ 2.85 µg/mL)	–	220	–	–	0.054	7.2
C[C@@H]1CN2c3c(cc4c(-n5ccnc5)noc4c3F)CC3(C(=O)NC(=O)NC3=O)[C@H]2[C@H](C)O1 (racemic)	–	2	–	–	12.5 (≈ 5.68 µg/mL)	12.5	12 (≈ 5.45 µg/mL)	1.56 (≈ 0.709 µg/mL)	50 (≈ 22.7 µg/mL)	–	490	–	–	0.031	400
C[C@@H]1CN2c3c(cc4c(-n5ncnc5CN(C)C)noc4c3F)CC3(C(=O)NC(=O)NC3=O)[C@H]2[C@H](C)O1	1.6 (≈ 0.82 µg/mL)	0.93	1.6 (≈ 0.82 µg/mL)	23	0.78 (≈ 0.4 µg/mL)	0.39	> 1000	< 0.2	50 (≈ 25.6 µg/mL)	1.6 (≈ 0.82 µg/mL)	590	110	–	0.18	–
C[C@@H]1CN2c3c(cc4c(-n5cc(C#N)cn5)noc4c3F)CC3(C(=O)NC(=O)NC3=O)[C@H]2[C@H](C)O1	–	2.4	–	–	0.2 (≈ 0.0959 µg/mL)	0.39	10 (≈ 4.79 µg/mL)	< 0.2	25 (≈ 12 µg/mL)	–	400	–	–	0.044	4.5
C[C@@H]1CN2c3c(cc4c(-n5cnnc5)noc4c3F)CC3(C(=O)NC(=O)NC3=O)[C@H]2[C@H](C)O1	–	0.54	–	–	25 (≈ 11.4 µg/mL)	12.5	> 1000	6.25 (≈ 2.85 µg/mL)	> 200	–	300	–	–	0.34	74
C[C@@H]1CN2c3c(cc4c(-n5ncnc5N)noc4c3F)CC3(C(=O)NC(=O)NC3=O)[C@H]2[C@H](C)O1	0.098 (≈ 0.0461 µg/mL)	1.9	0.098 (≈ 0.0461 µg/mL)	–	< 0.2	< 0.2	460 (≈ 216 µg/mL)	0.049 (≈ 0.0231 µg/mL)	12 (≈ 5.65 µg/mL)	0.39 (≈ 0.183 µg/mL)	75	–	6	0.11	–
